According to PubChem BioAssay (NCI):
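A five-concentration, 48-hour dose response in 96-well plates underlies each endpoint, interpolated linearly between surrounding concentrations. TGI: concentration producing complete growth inhibition.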

Columns and labels:
Assay in all cases: NCI tumour cell line growth inhibition, 48 h
[1] = tested on: 786-0 renal
[2] = tested on: A498 renal
[3] = tested on: A549 NSCLC
[4] = tested on: ACHN renal
[5] = tested on: CAKI-1 renal
[6] = tested on: CCRF-CEM leukemia
[7] = tested on: COLO 205 colon
[8] = tested on: DLD-1 colon
[9] = tested on: DMS 114 small cell lung
[10] = tested on: DMS 273 small cell lung
[11] = tested on: EKVX NSCLC
[12] = tested on: HCC-2998 colon
[13] = tested on: HCT-116 colon
[14] = tested on: HCT-15 colon
[15] = tested on: HL-60(TB) leukemia
[16] = tested on: HOP-18 NSCLC
[17] = tested on: HOP-62 NSCLC
[18] = tested on: HOP-92 NSCLC
[19] = tested on: HT29 colon
[20] = tested on: IGROV1 ovarian
[21] = tested on: K-562 leukemia
[22] = tested on: KM12 colon
[23] = tested on: KM20L2 colon
[24] = tested on: LXFL 529 NSCLC
[25] = tested on: M14 melanoma
[26] = tested on: M19-MEL melanoma
[27] = tested on: MALME-3M melanoma
[28] = tested on: MOLT-4 leukemia
[29] = tested on: NCI-H226 lung
[30] = tested on: NCI-H23 lung
[31] = tested on: NCI-H460 lung
[32] = tested on: NCI-H522 lung
[33] = tested on: OVCAR-3 ovarian
[34] = tested on: OVCAR-4 ovarian
[35] = tested on: OVCAR-5 ovarian
[36] = tested on: OVCAR-8 ovarian
[37] = tested on: RPMI-8226 leukemia
[38] = tested on: RXF 393 renal
[39] = tested on: SF-268 CNS
[40] = tested on: SF-295 CNS
[41] = tested on: SF-539 CNS
[42] = tested on: SK-MEL-2 melanoma
[43] = tested on: SK-MEL-5 melanoma
[44] = tested on: SK-OV-3 ovarian
[45] = tested on: SN12C renal
[46] = tested on: SNB-19 CNS
[47] = tested on: SNB-75 CNS
[48] = tested on: SNB-78 CNS
[49] = tested on: SR leukemia
[50] = tested on: SW-620 colon
[51] = tested on: TK-10 renal
[52] = tested on: U251 CNS
[53] = tested on: UACC-257 melanoma
[54] = tested on: UACC-62 melanoma
[55] = tested on: UO-31 renal
[56] = tested on: XF 498 CNS
[57] = tested on: BT-549 breast
[58] = tested on: DU-145 prostate
[59] = tested on: HS 578T breast
[60] = tested on: LOX IMVI melanoma
[61] = tested on: MCF7 breast
[62] = tested on: MDA-MB-231 breast
[63] = tested on: MDA-MB-435
[64] = tested on: MDA-N
[65] = tested on: NCI/ADR-RES ovarian
[66] = tested on: PC-3 prostate
[67] = tested on: SK-MEL-28 melanoma
[68] = tested on: T-47D breast

Measured: TGI

CCCCCC(=O)Nc1nc2nc[nH]c2c(=O)[nH]1
not listed: [57] | [58] | [59] | [60] | [61] | [62] | [63] | [64] | [65] | [66] | [67] | [68]
> 100 µM: all other assays above

O=C(Nc1nn[nH]n1)c1nc(-c2ccccc2)cc(=O)[nH]1
not listed: [10] | [16]
> 100 µM: all other assays above
